Source: article PMC3076384, “A Dopa Decarboxylase Modulating the Immune Response of Scallop Chlamys farreri” (PLoS ONE, 2011)

Biological target: T1, rCfDDC (recombinant CfDDC, dopa decarboxylase of Chlamys farreri) (Azumapecten farreri, UniProt F8QPW5)
T1 construct: gene DDC; ~65 kDa on gel
T1 sequence (F8QPW5 1-560): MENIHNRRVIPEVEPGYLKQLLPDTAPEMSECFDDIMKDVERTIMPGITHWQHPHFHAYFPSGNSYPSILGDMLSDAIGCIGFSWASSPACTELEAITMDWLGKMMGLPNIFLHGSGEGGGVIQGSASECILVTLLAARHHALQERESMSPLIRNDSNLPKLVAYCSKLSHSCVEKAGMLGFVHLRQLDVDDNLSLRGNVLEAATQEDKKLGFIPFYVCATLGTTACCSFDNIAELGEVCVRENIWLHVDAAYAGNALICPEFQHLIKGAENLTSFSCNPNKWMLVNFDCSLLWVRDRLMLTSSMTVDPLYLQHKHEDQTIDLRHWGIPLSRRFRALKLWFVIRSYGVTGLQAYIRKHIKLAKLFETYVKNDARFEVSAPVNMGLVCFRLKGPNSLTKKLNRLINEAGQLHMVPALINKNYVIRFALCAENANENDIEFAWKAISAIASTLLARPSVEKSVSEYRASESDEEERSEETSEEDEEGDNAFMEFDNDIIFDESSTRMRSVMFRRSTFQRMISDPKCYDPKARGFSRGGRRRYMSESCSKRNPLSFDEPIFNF
Assay: dopamine formation measured by ELISA kit
Format: biochemical
Conditions: 30 mM L-Dopa; 0.4 mM PLP; PBS pH 7.4; 37 °C; 1 h

N[C@@H](Cc1ccc(O)c(O)c1)C(=O)O [L-Dopa]
dopamine formation measured by ELISA kit: there was detectable dopamine in the reactions with the addition of rCfDDC
